Experiments:
Settings in all cases: 72 h
Calu-3 [1] = assay: drug sensitivity score (DSS) for viability; higher = more toxic; extreme values may be limits of the assay
HepG2 [2] = assay: as above
Vero E6 [3] = assay: as above
Caco-2 [4] = assay: as above
Calu-3 [5] = assay: cell viability relative to DMSO; higher = less toxic
HepG2 [6] = assay: as above
Vero E6 [7] = assay: as above
Caco-2 [8] = assay: as above
Calu-3 [9] = assay: relative viability EC50 (midpoint between 100% and the lowest measured viability); higher = less toxic
HepG2 [10] = assay: as above
Vero E6 [11] = assay: as above
Caco-2 [12] = assay: as above
U2OS [13] = assay: drug sensitivity score (DSS) for viability; higher = more toxic; extreme values may be limits of the assay
U2OS [14] = assay: cell viability relative to DMSO; higher = less toxic
U2OS [15] = assay: relative viability EC50 (midpoint between 100% and the lowest measured viability); higher = less toxic

SMILES	drug sensitivity score (Calu-3 [1])	drug sensitivity score (HepG2 [2])	drug sensitivity score (Vero E6 [3])	drug sensitivity score (Caco-2 [4])	cell viability (Calu-3 [5]; 1 nM)	cell viability (Calu-3 [5]; 10 nM)	cell viability (Calu-3 [5]; 100 nM)	cell viability (Calu-3 [5]; 1000 nM)	cell viability (Calu-3 [5]; 10000 nM)	cell viability (HepG2 [6]; 1 nM)	cell viability (HepG2 [6]; 10 nM)	cell viability (HepG2 [6]; 100 nM)	cell viability (HepG2 [6]; 1000 nM)	cell viability (HepG2 [6]; 10000 nM)	cell viability (Vero E6 [7]; 1 nM)	cell viability (Vero E6 [7]; 10 nM)	cell viability (Vero E6 [7]; 100 nM)	cell viability (Vero E6 [7]; 1000 nM)	cell viability (Vero E6 [7]; 10000 nM)	cell viability (Caco-2 [8]; 1 nM)	cell viability (Caco-2 [8]; 10 nM)	cell viability (Caco-2 [8]; 100 nM)	cell viability (Caco-2 [8]; 1000 nM)	cell viability (Caco-2 [8]; 10000 nM)	relative viability EC50 (Calu-3 [9])	relative viability EC50 (HepG2 [10])	relative viability EC50 (Vero E6 [11])	relative viability EC50 (Caco-2 [12])	drug sensitivity score (U2OS [13])	cell viability (U2OS [14]; 1 nM)	cell viability (U2OS [14]; 10 nM)	cell viability (U2OS [14]; 100 nM)	cell viability (U2OS [14]; 1000 nM)	cell viability (U2OS [14]; 10000 nM)	relative viability EC50 (U2OS [15])
CCCC(C)NC(=O)c1ccc(Cl)c(Cl)c1 (centres undefined)	0	0	0	0	103%	77.1%	99%	77.4%	104%	97.1%	104%	92.8%	98%	98.6%	104%	101%	99.3%	103%	99.8%	120%	98%	104%	117%	94.5%	> 10 µM	> 10 µM	> 10 µM	> 10 µM							
CCc1cncnc1N1CCN(Cc2nc3cc(C(F)(F)F)ccc3[nH]2)CC1	1.1	4.8	0	2.1	80.8%	101%	84.2%	89.9%	88.2%	97.6%	103%	103%	92.4%	34.8%	99.5%	104%	101%	101%	89.9%	93.2%	109%	99%	98.5%	61.8%	> 10 µM	2.21 µM	> 10 µM		0.9	96.6%	101%	98.5%	97.7%	79.9%	> 10 µM
COc1ccc(CC2NCCc3c2[nH]c2ccc(C)cc32)c(Cl)c1OC (centres undefined)	1.3	0	2.1	0	101%	95.9%	92.9%	102%	66.8%	103%	90.2%	108%	104%	91.7%	99%	93.2%	101%	89.1%	76.5%	94.8%	98.2%	105%	102%	87.9%		> 10 µM	> 10 µM	> 10 µM	0	95.4%	101%	98.3%	101%	94%	> 10 µM
C[C@@H](CN1CCC(n2c(=O)[nH]c3cc(Cl)ccc32)CC1)NC(=O)c1ccc2ccccc2c1	0.7	0.9		1	102%	99.7%	96.2%	94.2%	82.1%	99.9%	102%	85.6%	94.1%	82.9%						93.8%	105%	101%	97.4%	79.5%	> 10 µM	> 10 µM		> 10 µM	0	106%	102%	100%	98.1%	91.1%	> 10 µM
C[C@H](NC(=O)c1sccc1OCc1ccc(Cl)cc1)c1ccccc1	0	0.7	0	1.9	102%	96%	99.6%	107%	98.1%	104%	108%	105%	103%	75.8%	113%	107%	108%	100%	96.8%	97.9%	103%	104%	97%	67.7%	> 10 µM	> 10 µM	> 10 µM		0	92.3%	103%	98.7%	99.9%	88.6%	> 10 µM
O=C(Nc1ccc(CN2CCOCC2)cc1)c1ccc(-c2cccc(Cl)c2)o1	0	0	0	0	98.3%	95.4%	97.3%	97.8%	91%	107%	104%	97.8%	93.7%	99.5%	100%	100%	102%	99.4%	102%	110%	102%	99.9%	104%	95.7%	> 10 µM	> 10 µM	> 10 µM	> 10 µM							
Cc1noc(C)c1-c1ccc(-c2cc(C(N)=O)c(NC(N)=O)s2)c(O[C@H]2CCNC2)c1 [AZD3264]	0	0	0	0	97.4%	95.7%	103%	101%	105%	114%	97.6%	99.8%	101%	99.4%	102%	104%	105%	97.4%	103%	95.7%	100%	100%	103%	106%	> 10 µM	> 10 µM	> 10 µM	> 10 µM							

Reference: the supplement of paper PMC13380429
